Measurements from PubChem BioAssay (NCI).
Where “and” joins values, the source holds several entries; their conditions need not be identical. Equal values may be shown once.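 In this assay, cells in 96-well plates receive the compound at five concentrations for 48 hours. Endpoints are linearly interpolated between the surrounding concentrations. GI50: concentration for 50% inhibition of growth. TGI: total growth inhibition.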

Key:
Assay in all cases: inhibition of tumour cell growth, NCI panel, 48 h
NCI-H522 lung = tested on: NCI-H522 lung
SF-268 CNS = tested on: SF-268 CNS
HCC-2998 colon = tested on: HCC-2998 colon
UACC-257 melanoma = tested on: UACC-257 melanoma
NCI-H23 lung = tested on: NCI-H23 lung
HL-60(TB) leukemia = tested on: HL-60(TB) leukemia
SK-MEL-28 melanoma = tested on: SK-MEL-28 melanoma
LOX IMVI melanoma = tested on: LOX IMVI melanoma
SF-539 CNS = tested on: SF-539 CNS
NCI-H226 lung = tested on: NCI-H226 lung

COC(=O)c1c(C(=O)OC)c(C(=O)OC)c(C(=O)OC)c1C(=O)OC
TGI (NCI-H522 lung): > 100 µM
TGI (SF-268 CNS): > 100 µM
TGI (HCC-2998 colon): > 100 µM
TGI (UACC-257 melanoma): > 100 µM
TGI (NCI-H23 lung): > 100 µM
TGI (HL-60(TB) leukemia): > 100 µM
TGI (SK-MEL-28 melanoma): > 100 µM
TGI (LOX IMVI melanoma): > 100 µM
TGI (SF-539 CNS): > 100 µM

CN1NC(c2ccccc2)=C(C#N)C(=O)CC1c1ccccc1Cl (configuration not stated)
TGI (NCI-H522 lung): > 100 µM
TGI (SF-268 CNS): > 100 µM
TGI (NCI-H226 lung): > 100 µM
TGI (HCC-2998 colon): > 100 µM
TGI (UACC-257 melanoma): > 100 µM
TGI (NCI-H23 lung): > 100 µM
TGI (HL-60(TB) leukemia): > 100 µM
TGI (SK-MEL-28 melanoma): > 100 µM
TGI (LOX IMVI melanoma): > 100 µM

O=c1c2ccccc2c(C=NCCNCCO)c2oc3ccccc3n12
GI50 (NCI-H522 lung): 16.7 µM
TGI (NCI-H522 lung): 37.7 µM
GI50 (SF-268 CNS): 3.63 µM
TGI (SF-268 CNS): 15.8 µM
GI50 (NCI-H226 lung): 11.9 µM
TGI (NCI-H226 lung): 29 µM
GI50 (HCC-2998 colon): 13.1 µM
TGI (HCC-2998 colon): 25.8 µM
GI50 (UACC-257 melanoma): 12.1 µM
TGI (UACC-257 melanoma): 26.7 µM
GI50 (NCI-H23 lung): 19.5 µM
TGI (NCI-H23 lung): 33.6 µM
GI50 (HL-60(TB) leukemia): 4.63 µM
TGI (HL-60(TB) leukemia): 20.7 µM
GI50 (LOX IMVI melanoma): 5.83 µM
TGI (LOX IMVI melanoma): 18.4 µM
GI50 (SF-539 CNS): 3.51 µM
TGI (SF-539 CNS): 12.2 µM

CCC(=O)[O-].CCC(=O)[O-].N.N.N.N.[Co+3].[O-][Cl+3]([O-])([O-])[O-]
GI50 (NCI-H522 lung): > 100 µM
TGI (NCI-H522 lung): > 100 µM
GI50 (SF-268 CNS): > 100 µM
TGI (SF-268 CNS): > 100 µM
GI50 (HCC-2998 colon): > 100 µM
TGI (HCC-2998 colon): > 100 µM
GI50 (UACC-257 melanoma): > 100 µM
TGI (UACC-257 melanoma): > 100 µM
GI50 (NCI-H23 lung): > 100 µM
TGI (NCI-H23 lung): > 100 µM
GI50 (HL-60(TB) leukemia): > 100 µM
TGI (HL-60(TB) leukemia): > 100 µM
GI50 (SK-MEL-28 melanoma): > 100 µM
TGI (SK-MEL-28 melanoma): > 100 µM
GI50 (LOX IMVI melanoma): > 100 µM
TGI (LOX IMVI melanoma): > 100 µM
GI50 (SF-539 CNS): > 100 µM
TGI (SF-539 CNS): > 100 µM

CCCCCCCCOC(=O)c1cc(O)c(O)c(O)c1
GI50 (SF-268 CNS): 1.49 µM
TGI (SF-268 CNS): 12.1 µM
GI50 (NCI-H226 lung): 8.51 µM
TGI (NCI-H226 lung): 29 µM
GI50 (HCC-2998 colon): 6 µM
TGI (HCC-2998 colon): 18.6 µM
GI50 (UACC-257 melanoma): 6.4 µM
TGI (UACC-257 melanoma): 45.4 µM
GI50 (NCI-H23 lung): 2.63 µM
TGI (NCI-H23 lung): 11.5 µM
GI50 (HL-60(TB) leukemia): 0.486 µM
TGI (HL-60(TB) leukemia): 5.02 µM
GI50 (SK-MEL-28 melanoma): 7.19 µM
TGI (SK-MEL-28 melanoma): 29.6 µM
GI50 (LOX IMVI melanoma): 1.33 µM
TGI (LOX IMVI melanoma): 10.6 µM
GI50 (SF-539 CNS): 2.52 µM
TGI (SF-539 CNS): 18.2 µM

CC[O+]=c1cccc2ssnc1-2
TGI (NCI-H522 lung): 82.6 µM
TGI (SF-268 CNS): > 100 µM
TGI (NCI-H226 lung): > 100 µM
TGI (HCC-2998 colon): > 100 µM
TGI (UACC-257 melanoma): > 100 µM
TGI (HL-60(TB) leukemia): > 100 µM
TGI (SK-MEL-28 melanoma): > 100 µM
TGI (LOX IMVI melanoma): > 100 µM
TGI (SF-539 CNS): > 100 µM

O=C(O)c1cc2c3c(c1)[C@H]1C=CC[C@H]1CN3CC1CC=CC21 (some centres not stated)
TGI (NCI-H522 lung): > 100 µM
TGI (SF-268 CNS): > 100 µM
TGI (NCI-H226 lung): > 100 µM
TGI (HCC-2998 colon): > 100 µM
TGI (UACC-257 melanoma): > 100 µM
TGI (NCI-H23 lung): > 100 µM
TGI (HL-60(TB) leukemia): > 100 µM
TGI (LOX IMVI melanoma): > 100 µM
TGI (SF-539 CNS): > 100 µM

CC(=O)OC1C(O)COC(Oc2c(C)c3c4c(c2O)[C@@H](C)CC[C@@H]4[C@@H](C)C[C@H]3C=C(C)C)C1O (some centres not stated)
GI50 (NCI-H522 lung): 30.9 µM
TGI (NCI-H522 lung): > 100 µM
GI50 (SF-268 CNS): 12.9 µM
TGI (SF-268 CNS): 32.7 µM
GI50 (NCI-H226 lung): 24.5 µM
TGI (NCI-H226 lung): 64.8 µM
GI50 (HCC-2998 colon): 18.7 µM
TGI (HCC-2998 colon): 43.6 µM
GI50 (NCI-H23 lung): 17.9 µM
TGI (NCI-H23 lung): 37.5 µM
GI50 (SK-MEL-28 melanoma): 22.3 µM
TGI (SK-MEL-28 melanoma): 48.2 µM
GI50 (LOX IMVI melanoma): 18 µM
TGI (LOX IMVI melanoma): 35.4 µM

CC(=O)[CH-]C(=O)c1ccccc1.CC(=O)[CH-]C(=O)c1ccccc1.[O-]c1ccc(O)cc1.[O-]c1ccc(O)cc1.[Ti+4]
GI50 (NCI-H522 lung): 1.97 µM
TGI (NCI-H522 lung): 4.37 µM
GI50 (SF-268 CNS): 14 µM
TGI (SF-268 CNS): 33.9 µM
GI50 (NCI-H226 lung): 15 µM
TGI (NCI-H226 lung): 34.6 µM
GI50 (HCC-2998 colon): 16.1 µM
TGI (HCC-2998 colon): 33.6 µM
GI50 (UACC-257 melanoma): 21.5 µM
TGI (UACC-257 melanoma): 70.7 µM
GI50 (HL-60(TB) leukemia): 3.71 µM
TGI (HL-60(TB) leukemia): 30.6 µM
GI50 (SK-MEL-28 melanoma): 18.6 µM
TGI (SK-MEL-28 melanoma): 35.7 µM
GI50 (LOX IMVI melanoma): 14.3 µM
TGI (LOX IMVI melanoma): 27.3 µM
GI50 (SF-539 CNS): 11.7 µM
TGI (SF-539 CNS): 24.1 µM

CC(C)c1cccc2sc(NC(=O)C(=O)CC(=O)c3ccc(F)cc3)nc12
TGI (NCI-H522 lung): > 100 µM
TGI (SF-268 CNS): > 100 µM
TGI (NCI-H226 lung): > 100 µM
TGI (UACC-257 melanoma): > 100 µM
TGI (NCI-H23 lung): > 100 µM
TGI (HL-60(TB) leukemia): > 100 µM
TGI (SK-MEL-28 melanoma): > 100 µM
TGI (LOX IMVI melanoma): > 100 µM
TGI (SF-539 CNS): > 100 µM

CC(=O)OC1CC(C)c2c1ncnc2N1CCN(C(=O)OC(C)(C)C)CC1 (configuration not stated)
GI50 (NCI-H522 lung): 22.6 µM
TGI (NCI-H522 lung): 47.2 µM
GI50 (SF-268 CNS): 67.2 µM
TGI (SF-268 CNS): > 100 µM
GI50 (NCI-H226 lung): 63.9 µM
TGI (NCI-H226 lung): > 100 µM
GI50 (HCC-2998 colon): 69.6 µM
TGI (HCC-2998 colon): > 100 µM
GI50 (NCI-H23 lung): 58.9 µM
TGI (NCI-H23 lung): > 100 µM
GI50 (HL-60(TB) leukemia): 25.9 µM
TGI (HL-60(TB) leukemia): 83.6 µM
GI50 (SK-MEL-28 melanoma): 72.9 µM
TGI (SK-MEL-28 melanoma): > 100 µM
GI50 (LOX IMVI melanoma): 47.8 µM
TGI (LOX IMVI melanoma): > 100 µM
GI50 (SF-539 CNS): 30.8 µM
TGI (SF-539 CNS): > 100 µM

CP(=O)(CCSc1ccccc1)c1ccccc1 (configuration not stated)
TGI (SF-268 CNS): > 100 µM
TGI (NCI-H226 lung): > 100 µM
TGI (HCC-2998 colon): > 100 µM
TGI (UACC-257 melanoma): > 100 µM
TGI (NCI-H23 lung): > 100 µM
TGI (HL-60(TB) leukemia): > 100 µM
TGI (SK-MEL-28 melanoma): > 100 µM
TGI (LOX IMVI melanoma): > 100 µM
TGI (SF-539 CNS): > 100 µM

c1ccc(CN2CCC3(CC2)ONC2=NCCN23)cc1
GI50 (NCI-H522 lung): 37.8 µM
TGI (NCI-H522 lung): > 100 µM
GI50 (SF-268 CNS): 89.8 µM
TGI (SF-268 CNS): > 100 µM
GI50 (NCI-H226 lung): 86.8 µM
TGI (NCI-H226 lung): > 100 µM
GI50 (UACC-257 melanoma): > 100 µM
TGI (UACC-257 melanoma): > 100 µM
GI50 (NCI-H23 lung): 54.9 µM
TGI (NCI-H23 lung): > 100 µM
GI50 (HL-60(TB) leukemia): 35.4 µM
TGI (HL-60(TB) leukemia): > 100 µM
GI50 (SK-MEL-28 melanoma): > 100 µM
TGI (SK-MEL-28 melanoma): > 100 µM
GI50 (LOX IMVI melanoma): 21.7 µM
TGI (LOX IMVI melanoma): 55.5 µM
GI50 (SF-539 CNS): 96.3 µM
TGI (SF-539 CNS): > 100 µM

CC(=O)c1ccc(NCn2nc(-c3ccccc3O)oc2=S)cc1
GI50 (NCI-H522 lung): > 100 µM
TGI (NCI-H522 lung): > 100 µM
GI50 (SF-268 CNS): > 100 µM
TGI (SF-268 CNS): > 100 µM
GI50 (NCI-H226 lung): 27.4 µM
TGI (NCI-H226 lung): 99.3 µM
GI50 (HCC-2998 colon): 27.8 µM
TGI (HCC-2998 colon): 66.2 µM
GI50 (UACC-257 melanoma): > 100 µM
TGI (UACC-257 melanoma): > 100 µM
GI50 (NCI-H23 lung): 92.6 µM
TGI (NCI-H23 lung): > 100 µM
GI50 (HL-60(TB) leukemia): > 100 µM
TGI (HL-60(TB) leukemia): > 100 µM
GI50 (SK-MEL-28 melanoma): > 100 µM
TGI (SK-MEL-28 melanoma): > 100 µM
GI50 (LOX IMVI melanoma): 22.7 µM
TGI (LOX IMVI melanoma): 45.5 µM

CCC1(c2ccncc2)CCC(=O)NC1=O (configuration not stated)
TGI (SF-268 CNS): > 100 µM
TGI (NCI-H226 lung): > 100 µM
TGI (HCC-2998 colon): > 100 µM
TGI (UACC-257 melanoma): > 100 µM
TGI (NCI-H23 lung): > 100 µM
TGI (HL-60(TB) leukemia): > 100 µM
TGI (SK-MEL-28 melanoma): > 100 µM
TGI (LOX IMVI melanoma): > 100 µM
TGI (SF-539 CNS): > 100 µM

COc1cc2c(cc1OCCN1C(=O)c3cccc4cccc(c34)C1=O)N=C[C@@H]1CCCN1C2=O
GI50 (NCI-H522 lung): 1.58 µM
TGI (NCI-H522 lung): 4.51 µM and 10.2 µM
TGI (SF-268 CNS): 15.3 µM
TGI (NCI-H226 lung): 32.4 µM
GI50 (HCC-2998 colon): 14.5 µM
TGI (HCC-2998 colon): 15.6 µM and 27.6 µM
GI50 (UACC-257 melanoma): 18 µM
TGI (UACC-257 melanoma): 19 µM and 35.8 µM
GI50 (NCI-H23 lung): 16.8 µM
TGI (NCI-H23 lung): 20.2 µM and 32.3 µM
GI50 (SK-MEL-28 melanoma): 19.7 µM
TGI (SK-MEL-28 melanoma): 16.3 µM and 49.3 µM
TGI (LOX IMVI melanoma): 12.3 µM
TGI (SF-539 CNS): 17.3 µM
